Test results taken from ChEMBL document CHEMBL3102825, “Exploration of a series of 5-arylidene-2-thioxoimidazolidin-4-ones as inhibitors of the cytolytic protein perforin” (J Med Chem, 2013).

assay: Aqueous solubility of the compound; type: physicochemical

| SMILES | solubility |
| --- | --- |
| O=C1NC(=S)[N-]/C1=C/c1ccc(-c2ccc3c(c2)CCNC3=O)s1.[Na+] | 1570 µg/mL |
| O=C1[N-]/C(=C/c2ccc(-c3ccc4c(c3)CNC4=O)s2)C(=O)N1.[Na+] | 136 µg/mL |
| CC1c2cc(-c3ccc(/C=C4/[N-]C(=S)NC4=O)s3)ccc2C(=O)N1C.[Na+] (stereo not given) | 1410 µg/mL |
| O=C1NC(=S)[N-]/C1=C/c1ccc(-c2ccc3c(c2)CN(CCCO)C3=O)s1.[Na+] | 10200 µg/mL |
| CCOC(=O)N1Cc2cc(-c3ccc(/C=C4/[N-]C(=S)NC4=O)s3)ccc2C1=O.[Na+] | 397 µg/mL |
| O=C1NC(=S)[N-]/C1=C/c1ccc(-c2ccc3c(c2)CNC3=O)s1.[Na+] | 140 µg/mL |

Results, then the compound that gave them:

| solubility | SMILES |
| --- | --- |
| 43 µg/mL | O=C1NC(=S)[N-]/C1=C/c1ccc(-c2ccc3c(c2)COC3=O)s1.[Na+] |
| 37.2 µg/mL | O=C1NC(=S)[N-]/C1=C/c1ccc(-c2ccc3c(c2)C(=O)NCC3)s1.[Na+] |
| 3430 µg/mL | O=C1NC(=S)[N-]/C1=C/c1ccc(-c2ccc3c(c2)CN(CCO)C3=O)s1.[Na+] |
| 151 µg/mL | CN1Cc2cc(-c3ccc(/C=C4/[N-]C(=S)NC4=O)s3)ccc2C1=O.[Na+] |
